Test results published in PubChem BioAssay (NCI).
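48-hour exposure; five concentrations; linearly interpolated endpoints. The concentration for full growth arrest is given as TGI.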

Experiments:
Assay in all cases: NCI anticancer screen, dose series, 48 h
ACHN renal = tested on: ACHN renal
COLO 205 colon = tested on: COLO 205 colon
DU-145 prostate = tested on: DU-145 prostate
LOX IMVI melanoma = tested on: LOX IMVI melanoma
MCF7 breast = tested on: MCF7 breast
NCI-H522 lung = tested on: NCI-H522 lung
OVCAR-5 ovarian = tested on: OVCAR-5 ovarian
SNB-75 CNS = tested on: SNB-75 CNS
SW-620 colon = tested on: SW-620 colon
UACC-257 melanoma = tested on: UACC-257 melanoma

Structure (SMILES) | TGI (ACHN renal) | TGI (COLO 205 colon) | TGI (DU-145 prostate) | TGI (LOX IMVI melanoma) | TGI (MCF7 breast) | TGI (NCI-H522 lung) | TGI (OVCAR-5 ovarian) | TGI (SNB-75 CNS) | TGI (SW-620 colon) | TGI (UACC-257 melanoma)
COc1ccc(OC)c2c(Nc3ccc(S(=O)(=O)O)c4cc(S(=O)(=O)O)cc(S(=O)(=O)O)c34)cc(C)nc12 | > 100 µM | > 100 µM | > 100 µM | > 100 µM | > 100 µM | > 100 µM | > 100 µM | > 100 µM | > 100 µM | > 100 µM
CC1=C(C(=O)OC(C)(C)C)C(c2ccc([N+](=O)[O-])cc2)C(C(=O)OC(C)(C)C)=C(C)N1 | 41.3 µM | 39.8 µM | 62.4 µM | 32.9 µM | 31.8 µM | 36.4 µM | 34.9 µM | 61.2 µM | 54 µM | 40.6 µM
CO/C(N)=C(\C#N)N=Cc1cccs1 | > 100 µM | > 100 µM | > 100 µM | > 100 µM | > 100 µM | 79.6 µM | > 100 µM | > 100 µM | > 100 µM | > 100 µM
COC(=O)c1ccccc1NCc1cc(O)ccc1O | 29.8 µM | 34 µM | > 100 µM | 32 µM | 38 µM | 6.75 µM | > 62.1 µM | > 75.9 µM | 52 µM | 31.2 µM
Clc1cc2ncn(C3CCCO3)c2cc1Cl (stereo not given) | > 100 µM | > 100 µM | > 100 µM | > 100 µM | > 100 µM | > 100 µM | > 100 µM | > 100 µM | > 100 µM | > 100 µM
CCN(CC)CCCNc1nnc(C)c2[nH]c3ccccc3c12 | 59.9 µM | 13.1 µM | 59.9 µM | 30.9 µM | > 100 µM | 21.3 µM | 61.3 µM | 38.8 µM | > 100 µM | 31.8 µM
CC(=O)OC1C(C)OC(OC2C[C@](O)(C(C)=O)Cc3c(O)c4c(c(O)c32)C(=O)c2ccccc2C4=O)C(F)C1OC(C)=O (stereo not given in full) | 0.704 µM | > 100 µM | 4.59 µM | 3.65 µM | > 20.2 µM | 4.29 µM | 5.45 µM | 4.33 µM | > 100 µM | 9.02 µM
CCOC(=O)C1(NC(=O)OC(C)(C)C)CCc2[nH]oc(=O)c2C1 (stereo not given) | > 100 µM | > 100 µM | > 100 µM | > 100 µM | > 100 µM | > 100 µM | > 100 µM | > 100 µM | > 100 µM | > 100 µM
Nc1nc(Nc2cc(F)c(Cl)c(F)c2)cc(=O)[nH]1 | > 100 µM | > 100 µM | > 100 µM | > 100 µM | > 100 µM | > 100 µM | > 100 µM | 97.9 µM | > 100 µM | > 100 µM
O=C(c1ccccc1)n1c2ccc(Br)cc2c2nc3ccccc3nc21 | > 100 µM | > 100 µM | > 100 µM | > 100 µM | > 100 µM | > 100 µM | > 100 µM | > 100 µM | > 100 µM | > 100 µM
CC(C)=C[C@@H]1C[C@H](C)[C@H]2CC[C@H](C)[C@H]3C(=O)C(O)=C(C)C(=O)[C@]123 | > 100 µM | > 100 µM | > 100 µM | > 100 µM | > 100 µM | > 100 µM | > 100 µM | > 100 µM | > 100 µM | > 100 µM
CCc1n[nH]c(=O)n1-c1ccncc1 | > 100 µM | > 100 µM | > 100 µM | > 100 µM | > 100 µM | > 100 µM | > 100 µM | > 100 µM | > 100 µM | > 100 µM
Cc1nnc(N)s/c1=N/O | > 100 µM | > 100 µM | > 100 µM | > 100 µM | > 100 µM | > 100 µM | > 100 µM | > 100 µM | > 100 µM | > 100 µM
C(/Cc1ccc2c(c1)OCO2)=N\NC1=NCCCCN1 | > 100 µM | > 100 µM | > 100 µM | > 100 µM | > 100 µM | > 100 µM | > 100 µM | > 100 µM | > 100 µM | > 100 µM
CNC(=O)N(C)C(=O)c1ccccc1C(=O)N(C)C(=O)NC | > 10 µM | > 10 µM | > 10 µM | > 10 µM | > 10 µM | > 10 µM | > 10 µM | > 10 µM | > 10 µM | > 10 µM
Nc1c(/C=C/c2cc3cc(C4=NCCN4)ccc3o2)[nH]c2cc(C3=NCCN3)ccc12 | > 100 µM | > 100 µM | > 100 µM | > 100 µM | > 100 µM | > 100 µM | > 100 µM | > 100 µM | > 100 µM | > 100 µM
N#Cc1c2c(c(Nc3ccc(Cl)cc3)n3c1nc1ccccc13)CCCC2 | > 100 µM | > 100 µM | > 100 µM | > 100 µM | > 100 µM | > 100 µM | > 100 µM | > 100 µM | > 100 µM | > 100 µM
